Results from PubChem BioAssay (NCI).
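48-hour exposure; five concentrations; linearly interpolated endpoints. The concentration for full growth arrest is given as TGI.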

Experiments:
Assay in all cases: DTP human tumour cell line panel, 48 h
[1] = system: 786-0 renal
[2] = system: SNB-75 CNS
[3] = system: RXF-631 renal
[4] = system: UACC-257 melanoma
[5] = system: SF-268 CNS
[6] = system: A549 NSCLC
[7] = system: M14 melanoma
[8] = system: OVCAR-4 ovarian
[9] = system: UACC-62 melanoma
[10] = system: SK-MEL-28 melanoma
[11] = system: RXF 393 renal
[12] = system: SK-OV-3 ovarian
[13] = system: LXFL 529 NSCLC
[14] = system: HOP-18 NSCLC
[15] = system: IGROV1 ovarian
[16] = system: NCI-H226 lung
[17] = system: OVCAR-8 ovarian
[18] = system: SNB-19 CNS
[19] = system: SF-539 CNS
[20] = system: CCRF-CEM leukemia
[21] = system: UO-31 renal
[22] = system: CAKI-1 renal
[23] = system: HCC-2998 colon
[24] = system: HL-60(TB) leukemia
[25] = system: SK-MEL-5 melanoma
[26] = system: M19-MEL melanoma
[27] = system: OVCAR-3 ovarian
[28] = system: A498 renal
[29] = system: DMS 273 small cell lung
[30] = system: RPMI-8226 leukemia
[31] = system: SNB-78 CNS
[32] = system: KM12 colon
[33] = system: HOP-62 NSCLC
[34] = system: U251 CNS
[35] = system: ACHN renal
[36] = system: SN12C renal
[37] = system: SW-620 colon
[38] = system: K-562 leukemia
[39] = system: NCI-H460 lung
[40] = system: DMS 114 small cell lung
[41] = system: TK-10 renal
[42] = system: HCT-116 colon
[43] = system: HCT-15 colon
[44] = system: NCI-H522 lung
[45] = system: MOLT-4 leukemia
[46] = system: SK-MEL-2 melanoma
[47] = system: MALME-3M melanoma
[48] = system: KM20L2 colon
[49] = system: DLD-1 colon
[50] = system: COLO 205 colon
[51] = system: LOX IMVI melanoma
[52] = system: XF 498 CNS
[53] = system: EKVX NSCLC
[54] = system: OVCAR-5 ovarian
[55] = system: HT29 colon
[56] = system: SF-295 CNS
[57] = system: SR leukemia
[58] = system: NCI-H23 lung

Question: With `COc1cc2c(c(OC)c1)C1(CC(CC#N)C2)SCCS1` (configuration not stated) as the compound, how does the TGI [1] read?
Answer: > 100 µM

Question: And the TGI [2]?
Answer: > 100 µM

Question: What about the TGI [3] of the same compound?
Answer: > 100 µM

Question: And the TGI [4]?
Answer: > 100 µM

Question: What about the TGI [5] of the same compound?
Answer: > 100 µM

Question: What about the TGI [6] of the same compound?
Answer: > 100 µM

Question: What about the TGI [7] of the same compound?
Answer: > 100 µM

Question: What about the TGI [8] of the same compound?
Answer: > 100 µM

Question: What about the TGI [9] of the same compound?
Answer: > 100 µM

Question: And the TGI [10]?
Answer: > 100 µM

Question: And the TGI [11]?
Answer: > 100 µM

Question: What about the TGI [12] of the same compound?
Answer: > 100 µM

Question: And the TGI [13]?
Answer: > 100 µM

Question: And the TGI [14]?
Answer: > 100 µM

Question: And the TGI [15]?
Answer: > 100 µM

Question: And the TGI [16]?
Answer: > 100 µM

Question: What about the TGI [17] of the same compound?
Answer: > 100 µM

Question: What about the TGI [18] of the same compound?
Answer: > 100 µM

Question: What about the TGI [19] of the same compound?
Answer: > 100 µM

Question: And the TGI [20]?
Answer: > 100 µM

Question: And the TGI [21]?
Answer: > 100 µM

Question: And the TGI [22]?
Answer: > 100 µM

Question: And the TGI [23]?
Answer: > 100 µM

Question: What about the TGI [24] of the same compound?
Answer: > 100 µM

Question: And the TGI [25]?
Answer: > 100 µM

Question: What about the TGI [26] of the same compound?
Answer: > 100 µM

Question: What about the TGI [27] of the same compound?
Answer: > 100 µM

Question: And the TGI [28]?
Answer: > 100 µM

Question: What about the TGI [29] of the same compound?
Answer: > 100 µM

Question: What about the TGI [30] of the same compound?
Answer: > 100 µM

Question: And the TGI [31]?
Answer: > 100 µM

Question: And the TGI [32]?
Answer: > 100 µM

Question: What about the TGI [33] of the same compound?
Answer: > 100 µM

Question: What about the TGI [34] of the same compound?
Answer: > 100 µM

Question: And the TGI [35]?
Answer: > 100 µM

Question: What about the TGI [36] of the same compound?
Answer: > 100 µM

Question: And the TGI [37]?
Answer: > 100 µM

Question: And the TGI [38]?
Answer: > 100 µM

Question: And the TGI [39]?
Answer: > 100 µM

Question: And the TGI [40]?
Answer: > 100 µM

Question: And the TGI [41]?
Answer: > 100 µM

Question: And the TGI [42]?
Answer: > 100 µM

Question: What about the TGI [43] of the same compound?
Answer: > 100 µM

Question: And the TGI [44]?
Answer: 4.69 µM

Question: And the TGI [45]?
Answer: > 100 µM

Question: What about the TGI [46] of the same compound?
Answer: > 100 µM

Question: And the TGI [47]?
Answer: > 100 µM

Question: And the TGI [48]?
Answer: > 100 µM

Question: And the TGI [49]?
Answer: > 100 µM

Question: What about the TGI [50] of the same compound?
Answer: > 100 µM

Question: For `COC(=O)C(=O)C(C(=O)C=C(C)C)C(=O)C(=O)Nc1ccc(C)cc1C` (configuration not stated), which TGI [1] is on record?
Answer: > 100 µM

Question: What about the TGI [2] of the same compound?
Answer: > 100 µM

Question: And the TGI [4]?
Answer: > 100 µM

Question: What about the TGI [5] of the same compound?
Answer: > 100 µM

Question: What about the TGI [6] of the same compound?
Answer: > 100 µM

Question: And the TGI [51]?
Answer: > 100 µM

Question: And the TGI [7]?
Answer: > 100 µM

Question: And the TGI [52]?
Answer: > 100 µM

Question: And the TGI [8]?
Answer: > 100 µM

Question: And the TGI [53]?
Answer: > 100 µM

Question: What about the TGI [9] of the same compound?
Answer: > 100 µM

Question: And the TGI [10]?
Answer: > 100 µM

Question: What about the TGI [11] of the same compound?
Answer: > 100 µM

Question: What about the TGI [12] of the same compound?
Answer: > 100 µM

Question: What about the TGI [13] of the same compound?
Answer: > 100 µM

Question: And the TGI [14]?
Answer: > 100 µM

Question: What about the TGI [15] of the same compound?
Answer: > 100 µM

Question: What about the TGI [16] of the same compound?
Answer: > 100 µM

Question: What about the TGI [17] of the same compound?
Answer: > 100 µM

Question: And the TGI [18]?
Answer: > 100 µM

Question: And the TGI [19]?
Answer: > 100 µM

Question: What about the TGI [20] of the same compound?
Answer: > 100 µM

Question: And the TGI [21]?
Answer: > 100 µM

Question: What about the TGI [22] of the same compound?
Answer: > 100 µM

Question: And the TGI [23]?
Answer: > 100 µM

Question: What about the TGI [24] of the same compound?
Answer: > 100 µM

Question: What about the TGI [25] of the same compound?
Answer: > 100 µM

Question: What about the TGI [26] of the same compound?
Answer: > 100 µM

Question: And the TGI [27]?
Answer: > 100 µM

Question: And the TGI [28]?
Answer: > 100 µM

Question: What about the TGI [29] of the same compound?
Answer: > 100 µM

Question: What about the TGI [30] of the same compound?
Answer: > 100 µM

Question: What about the TGI [31] of the same compound?
Answer: > 100 µM

Question: What about the TGI [32] of the same compound?
Answer: > 100 µM

Question: What about the TGI [33] of the same compound?
Answer: > 100 µM

Question: What about the TGI [34] of the same compound?
Answer: > 100 µM

Question: And the TGI [35]?
Answer: > 100 µM

Question: And the TGI [54]?
Answer: > 100 µM

Question: And the TGI [36]?
Answer: > 100 µM

Question: And the TGI [37]?
Answer: > 100 µM

Question: What about the TGI [38] of the same compound?
Answer: > 100 µM

Question: And the TGI [39]?
Answer: > 100 µM

Question: And the TGI [40]?
Answer: > 100 µM

Question: And the TGI [41]?
Answer: > 100 µM

Question: And the TGI [42]?
Answer: > 100 µM

Question: What about the TGI [43] of the same compound?
Answer: > 100 µM

Question: What about the TGI [44] of the same compound?
Answer: > 100 µM

Question: What about the TGI [45] of the same compound?
Answer: > 100 µM

Question: What about the TGI [46] of the same compound?
Answer: > 100 µM

Question: And the TGI [47]?
Answer: > 100 µM

Question: And the TGI [55]?
Answer: > 100 µM

Question: What about the TGI [48] of the same compound?
Answer: > 100 µM

Question: What about the TGI [49] of the same compound?
Answer: > 100 µM

Question: And the TGI [56]?
Answer: > 100 µM

Question: What about the TGI [50] of the same compound?
Answer: > 100 µM

Question: What about the TGI [57] of the same compound?
Answer: > 100 µM

Question: And the TGI [58]?
Answer: > 100 µM
